Laboratory results: patent US7064236B2, “Substituted 1-aryl-but-3-enylamine and 1-aryl-but-2-enylamine compounds” (Grunenthal GmbH, priority 2001, dated 2006)
Counter-ions that a name gives are not always drawn.

The compounds below were run on phenylquinone-induced writhing in mice (assay: Analgesic testing by phenylquinone-induced writhing test in mice). Details: 10 min; 10 mg/kg intravenous, mouse, phenylquinone i.p. 10 minutes after compound; read-out: % Inhibition of writhing reaction.
Format: in vivo, mouse (male NMRI mice)
Procedure: Analgesic Testing by Writhing Test in Mice
The investigation into analgesic efficacy was performed by phenylquinone-induced writhing in mice (modified after: I. C. Hendershot and J. Forsaith (1959) J. Pharmacol. Exp. There. 125, 237–240). Male NMRI mice weighing from 25–30 g were used for this purpose. 10 minutes after intravenous administration of the test compounds, groups of 10 animals per dose of a compound received 0.3 ml/mouse of a 0.02% aqueous solution of phenylquinone (phenylbenzoquinone, sigma, Deisenhofen; production of the solution with addition of 5% ethanol and storage in water bath at 45° C.), administered intraperitoneally. The animals were placed individually in observation cages. A push button counter was used to record the number of pain-induced stretching movements (writhing reactions=straightening of the torso with stretching of the rear extremities) for 5–20 minutes after phenylquinone administration. The control was provided by animals who received only physiological common salt solution. All the compounds were tested at the standard dosage of 10 mg/kg. The percentage inhibition (%inhibition) of the writhing reaction by a compound of the general formula I according to the invention was calculated according to the following formula: […]
The in-depth investigation of the compounds of the general formula I according to the invention for analgesic efficacy was performed by phenylquinone-induced writhing in mice, as described above.

| Compound | inhibition in vivo at 10 mg/kg [%] |
| --- | --- |
| CN(C)C(C1=C(Cc2ccccc2F)CCCC1)c1ccccc1 (stereo not drawn) [Example 19, {[2-(2-Fluoro-benzyl)-cyclohex-1-enyl)-phenyl-methyl}-dimethyl-amine hydrochloride] | 87 |
| CN(C)C(C1=C(c2ccc(Cl)cc2)CCCC1)c1ccccc1 (stereo not drawn) [Example 28, {[2-(4-Chloro-phenyl)-cyclohex-1-enyl]-phenyl-methyl}-dimethyl-amine hydrochloride] | 71 |
| CN(C)C(C1=C(CCc2ccccc2)CCCC1)c1ccccc1 (stereo not drawn) [Example 23, Dimethyl-[(2-phenethyl-cyclohex-1-enyl)-phenyl-methyl]-amine hydrochloride] | 67 |
| CN(C)C(C1=C(Cc2ccccc2Cl)CCCC1)c1ccccc1 (stereo not drawn) [Example 20, {[2-(2-Chloro-benzyl)-cyclohex-1-enyl]-phenyl-methyl}-dimethyl-amine hydrochloride] | 63 |
| CN(C)C(C1=C(c2ccccc2)CCCC1)c1ccc(C(F)(F)F)cc1 (stereo not drawn) [Example 29, Dimethyl-[(2-phenyl-cyclohex-1-enyl)-(4-trifluoromethyl-phenyl)-methyl]-amine hydrochloride] | 40 |
| COc1ccc(C2=CCCCC2C(c2ccccc2)N(C)C)cc1 (stereo not drawn) [Example 27, {[2-(4-methoxy-phenyl)-cyclohex-2-enyl]-phenyl-methyl}-dimethylamine hydrochloride] | 47 |
| CN(C)C(C1=C(Cc2cccc(F)c2)CCCC1)c1ccccc1 (stereo not drawn) [Example 21, {[2-(3-Fluoro-benzyl)-cyclohex-1-enyl)-phenyl-methyl}-dimethyl-amine hydrochloride] | 67 |
| CN(C)C(c1ccccc1)C1CCCC=C1c1cccc(O)c1 (stereo not drawn) [Example 24, 3-[6-(dimethylamino-phenyl-methyl)-cyclohex-1-enyl]-phenol hydrochloride] | 76 |

Same assay, conditions: 10 min; 21.5 mg/kg intravenous, mouse, phenylquinone i.p. 10 minutes after compound; read-out: % Inhibition of writhing reaction

| Compound | inhibition in vivo at 21.5 mg/kg [%] |
| --- | --- |
| CN(C)C(C1=C(Cc2cccc(C(F)(F)F)c2)CCCC1)c1ccccc1 (stereo not drawn) [Example 22, Dimethyl-{phenyl-[2-(3-trifluoromethyl-benzyl)-cyclohex-1-enyl]-methyl}-amine hydrochloride] | 46 |
